In one data set the test system is HTT mRNA. As to the kind of experiment: RT-qPCR splicing assay, HTT mRNA canonical (CJ) and alternative (AJ) junction. Type of data set: cell-based, human. Conditions: for AC50: HTT alternative junction mRNA, read-out: HTT AJ (increase in AJ mRNA, AC50). A digest of the protocol:
(§1)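 Splice switching quantified in compound-treated A673/K562 cells after 24 h exposure (top dose 10 uM, 3-fold steps, ≤0.25% DMSO), using CJ and AJ qPCR assays run at least in duplicate. RQ derived by 2^(−ΔΔCt), then percentage response.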

For a further data set, the system named is MYB mRNA. As to the kind of experiment: RT-qPCR splicing assay, MYB mRNA canonical (CJ) and alternative (AJ) junction. Type of data set: cell-based, human. Conditions: for AC50: MYB alternative junction mRNA, read-out: MYB AJ (increase in AJ mRNA, AC50). In short, it runs like this: as §1
For orientation: Real-time PCR tracks product formation cycle by cycle.

For another data set, the system named is SMN2 mRNA. As to the kind of experiment: RT-qPCR splicing assay, SMN2 mRNA. The format is cell-based, human. Conditions: canonical junction qPCR panel, Table 4, read-out: SMN2 IC50 (decrease in CJ mRNA levels). A digest of the protocol:
as §1

The subject of the next data set is MYB. As to the kind of experiment: HiBiT protein abundance assay, MYB (K562 HiBiT knock-in). The format is cell-based, human. Conditions: HiBiT knock-in K562 cells, 24 hours, top dose 10 μM. In short, it runs like this:
(§2)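 Luminescence readout: Nano-Glo HiBiT lytic detection after 24 h compound exposure of K562 HiBiT knock-in cells, 10000 cells/well. Dosing 10-pt, 3-fold, top 10 μM final. % response vs untreated parental K562 and DMSO controls; 4PL fit, IC50 = concentration giving 50% protein abundance.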

A further data set has as its system HTT. As to the kind of experiment: HiBiT protein abundance assay, HTT (K562 HiBiT knock-in). Type of data set: cell-based, human. To be noted: HiBiT knock-in K562 cells, 24 hours, top dose 10 μM. In short, it runs like this:
as §2
Background: HiBiT is a short tag that completes a luciferase, so light tracks the accessible tagged protein.

The next data set relates to Target C. As to the kind of experiment: HiBiT protein abundance assay, Target C (K562 HiBiT knock-in). To be noted: HiBiT knock-in K562 cells, 24 hours, top dose 10 μM. The format is cell-based, human. A digest of the protocol:
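K562 HiBiT knock-in cells (10000/well) were treated 24 h at 37° C with a 10-point 3-fold dilution series (top 10 μM final, ≤0.25% DMSO). HiBiT luminescence was read after lytic LgBiT detection. Percent response used unmodified K562 and DMSO-treated knock-in controls, and IC50 came from a four-parameter fit at 50% of untreated.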

In a further data set the test system is K562 cells. As to the kind of experiment: Cell Titer Glo 2.0 cell viability (toxicity) assay, K562. Conditions: 500 cells/well, 72 hours. On the technique in general: ATP-based viability assays read luminescence as a measure of living cells.
The mark [1] stands for this setting: Homo sapiens, HTT canonical junction mRNA, RT-qPCR, read-out: HTT CJ (decrease in CJ mRNA levels, IC50).
Setting [2] is: Homo sapiens, canonical junction qPCR panel, Table 4, read-out: HTT IC50 (decrease in CJ mRNA levels).
The mark [3] stands for this setting: Homo sapiens, MYB canonical junction mRNA, RT-qPCR, read-out: MYB CJ (decrease in CJ mRNA levels, IC50).
The mark [4] stands for this setting: Homo sapiens, canonical junction qPCR panel, Table 4, read-out: MYB IC50 (decrease in CJ mRNA levels).

Molecules are shown by their SMILES. Like-named read-outs stand apart in the source and are kept apart here.

`Cc1nc2cc(O)c(-c3ccc4nc(N5CCC(NC(C)(C)C)C5)ccc4n3)cc2s1` (centres unmarked) [Compound 190]: the AC50 (in general, the midpoint of the concentration-response curve, whichever way the signal moves) with HTT mRNA (Homo sapiens, RT-qPCR) is more than 10 µM; in the data set on MYB mRNA (Homo sapiens, RT-qPCR), more than 10 µM. Further, the IC50 (commonly the midpoint of a concentration-inhibition curve) with HTT mRNA (setting [1]) was more than 10 µM; in the data set on HTT mRNA (setting [2]) it was more than 10 µM; with MYB mRNA (setting [3]) it was more than 10 µM; in the data set with MYB mRNA (setting [4]) it was more than 10 µM; in the data set on SMN2 mRNA (Homo sapiens), less than 0.1 µM; in the data set on MYB, more than 10 µM. Moreover, the IC50 in the data set on HTT and with Target C was more than 10 µM each time. Further, the “Effect of Exemplary Compounds on Cell Viability, K562” value (“Effect of Exemplary Compounds” below) in the data set with K562 cells is given as “C (C represents 1000-9999 nM)”.
As for `Cc1c(O)c(-c2ccc3nc(N4CCC(NC(C)(C)C)C4)ccc3n2)cc2cn(C)nc12` (centres unmarked) [Compound 191], the AC50 in the data set on HTT mRNA (RT-qPCR) and with MYB mRNA (RT-qPCR) was more than 10 µM throughout. The IC50 was more than 10 µM with HTT mRNA (HTT canonical junction mRNA, RT-qPCR, read-out: HTT CJ (decrease in CJ mRNA levels, IC50)); more than 10 µM in the data set with HTT mRNA (canonical junction qPCR panel, Table 4, read-out: HTT IC50 (decrease in CJ mRNA levels)); more than 10 µM in the data set on MYB mRNA (MYB canonical junction mRNA, RT-qPCR, read-out: MYB CJ (decrease in CJ mRNA levels, IC50)); more than 10 µM with MYB mRNA (canonical junction qPCR panel, Table 4, read-out: MYB IC50 (decrease in CJ mRNA levels)); more than 10 µM with SMN2 mRNA; less than 0.1 µM in the data set on MYB. Besides, the IC50 with HTT and in the data set with Target C was less than 0.1 µM throughout. The “Effect of Exemplary Compounds” value in the data set on K562 cells is on record as “A (A represents <100 nM)”.
Take `Cn1cc2cc(-c3ccc4nc(C5CCNCC5)ccc4n3)c(F)cc2n1` [Compound 193]: the AC50 in the data set on HTT mRNA (Homo sapiens, RT-qPCR) is 1 to 10 µM; with MYB mRNA (Homo sapiens, RT-qPCR), 1 to 10 µM. Also, the IC50 with HTT mRNA (setting [1]), in the data set with HTT mRNA (setting [2]), in the data set on MYB mRNA (setting [3]), in the data set on MYB mRNA (setting [4]), in the data set on SMN2 mRNA (Homo sapiens) and with MYB was 1 to 10 µM in each case. Also, the IC50 with HTT and in the data set with Target C was 1 to 10 µM each time. The “Effect of Exemplary Compounds” value in the data set with K562 cells is given as “C (C represents 1000-9999 nM)”.
Turning to `Cn1cc2cc(-c3ccc4nc(N5CC[C@@H](NCC6CC6)C5)ccc4n3)c(O)cc2n1` [Compound 195], the AC50 in the data set on HTT mRNA (Homo sapiens, RT-qPCR) was 0.1 to 1 µM; in the data set on MYB mRNA (Homo sapiens, RT-qPCR), less than 0.1 µM. In addition, the IC50 in the data set with HTT mRNA (setting [1]) is 0.1 to 1 µM; in the data set with HTT mRNA (setting [2]), 0.1 to 1 µM; in the data set on MYB mRNA (setting [3]), 0.1 to 1 µM; in the data set on MYB mRNA (setting [4]), 0.1 to 1 µM; in the data set on SMN2 mRNA (Homo sapiens), less than 0.1 µM; in the data set with MYB it was less than 0.1 µM. The IC50 in the data set with HTT and with Target C was 0.1 to 1 µM each time. In addition, the “Effect of Exemplary Compounds” value in the data set with K562 cells is recorded as “B (B represents 100-1000 nM)”.
For `Cn1cc2cc(-c3ccc4nc(C5CCNCC5)ccc4n3)c(C(F)F)cc2n1` [Compound 196], the AC50 in the data set on HTT mRNA (Homo sapiens, RT-qPCR) is more than 10 µM; in the data set with MYB mRNA (Homo sapiens, RT-qPCR) it was more than 10 µM. In addition, the IC50 with HTT mRNA (setting [1]) is more than 10 µM; in the data set on HTT mRNA (setting [2]), more than 10 µM; in the data set on MYB mRNA (setting [3]), more than 10 µM; with MYB mRNA (setting [4]) it was more than 10 µM; in the data set on SMN2 mRNA (Homo sapiens), 1 to 10 µM; in the data set on MYB, more than 10 µM. The IC50 with HTT and in the data set on Target C was more than 10 µM throughout. The “Effect of Exemplary Compounds” value in the data set with K562 cells was “D (D represents greater than 10 μM in K562 cells)”.
Regarding `Cn1cc2cc(-c3ccc4nc(N5CC[C@H](NC6CC6)C5)ccc4n3)c(O)cc2n1` [Compound 197], the AC50 in the data set on HTT mRNA (Homo sapiens, RT-qPCR) is less than 0.1 µM; in the data set with MYB mRNA (Homo sapiens, RT-qPCR), 0.1 to 1 µM. Besides, the IC50 is less than 0.1 µM in the data set with HTT mRNA (setting [1]); less than 0.1 µM with HTT mRNA (setting [2]); 0.1 to 1 µM in the data set on MYB mRNA (setting [3]); 0.1 to 1 µM in the data set with MYB mRNA (setting [4]); less than 0.1 µM with SMN2 mRNA (Homo sapiens); 0.1 to 1 µM in the data set with MYB. Also, the IC50 is less than 0.1 µM in the data set on HTT and 0.1 to 1 µM in the data set on Target C. In addition, the “Effect of Exemplary Compounds” value in the data set with K562 cells is “B (B represents 100-1000 nM)”.
As to `Cn1cc2cc(-c3ccc4nc(N5CC[C@@H](NC6CC6)C5)ccc4n3)c(O)cc2n1` [Compound 198], the AC50 is less than 0.1 µM in the data set on HTT mRNA (Homo sapiens, RT-qPCR) and less than 0.1 µM in the data set with MYB mRNA (Homo sapiens, RT-qPCR). Besides, the IC50 in the data set with HTT mRNA (setting [1]), in the data set on HTT mRNA (setting [2]), in the data set on MYB mRNA (setting [3]), with MYB mRNA (setting [4]), in the data set with SMN2 mRNA (Homo sapiens) and with MYB was less than 0.1 µM throughout. Further, the IC50 in the data set with HTT and in the data set with Target C was less than 0.1 µM throughout. In addition, the “Effect of Exemplary Compounds” value with K562 cells is reported as “B (B represents 100-1000 nM)”.

Source of the values: US20250092065A1, “2-(INDAZOL-5-YL)-6-(PIPERIDIN-4-YL)-1,7-NAPHTHYRIDINE DERIVATIVES AND RELATED COMPOUNDS AS MODULATORS FOR SPLICING NUCLEIC ACIDS AND FOR THE TREATMENT OF PROLIFERATIVE DISEASES” (REMIX THERAPEUTICS INC., priority 2022, published 2025).
